Data taken from the supplement of paper PMC10331698.
± gives the standard deviation of the averaged measurements.

Key:
Experiment in all cases: level (log10 ratio to DMSO vehicle control); higher = higher biomarker level / cell amount than vehicle control
[1] = compound: O=S(=O)(O)CCC(F)(F)C(F)(F)C(F)(F)C(F)(F)C(F)(F)C(F)(F)F [6:2 Fluorotelomer sulfonic acid]; settings: in DMSO
Method: (§1)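 BioMAP Diversity Plus panel of 12 human primary cell co-culture systems (3C, 4H, LPS, SAg, BT, BF4T, BE3C, CASM3C, HDF3CGF, KF3CT, MyoF, Mphg). Compounds were added 1 h before stimulation and left for 24 h (MyoF 48 h; BT 72 h for soluble read-outs or 6 d for IgG). Biomarkers were read by ELISA, cytotoxicity by SRB, PBMC viability and proliferation by Alamar Blue. Each well value was divided by the mean of 8 DMSO control wells on the same plate and log10 transformed; duplicate blinded samples were tested at 4 concentrations.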

[2] = compound: C=C(C)C(=O)OCCC(F)(F)C(F)(F)C(F)(F)C(F)(F)C(F)(F)C(F)(F)F [6:2 Fluorotelomer methacrylate]; settings: in DMSO
Method: as §1

[3] = compound: NS(=O)(=O)C(F)(F)C(F)(F)C(F)(F)C(F)(F)C(F)(F)C(F)(F)F [Perfluorohexanesulfonamide]; settings: in DMSO
Method: as §1

[4] = compound: FC(F)(F)C(F)(F)C(F)(F)C(F)(F)C(F)(F)C(F)(F)C(F)(F)I [1-Iodopentadecafluoroheptane]; settings: in DMSO
Method: as §1

[5] = compound: C=CC(=O)OCC(F)(F)C(F)(F)C(F)(F)COC(=O)C=C [1H,1H,5H,5H-Perfluoro-1,5-pentanediol diacrylate]; settings: 6700 nM; in DMSO
Method: as §1

[6] = compound: NC(=O)C(F)(F)C(F)(F)C(F)(F)C(F)(F)C(N)=O [Octafluoroadipamide]; settings: in DMSO
Method: as §1

Test System | level (log10) ([1]; 6700 nM) | level (log10) ([1]; 20000 nM) | level (log10) ([1]; 60000 nM) | level (log10) ([2]; 6700 nM) | level (log10) ([2]; 20000 nM) | level (log10) ([2]; 60000 nM) | level (log10) ([3]; 6700 nM) | level (log10) ([3]; 20000 nM) | level (log10) ([3]; 60000 nM) | level (log10) ([4]; 6700 nM) | level (log10) ([4]; 20000 nM) | level (log10) [5] | level (log10) ([6]; 6700 nM) | level (log10) ([6]; 20000 nM) | level (log10) ([6]; 60000 nM)
3C:CCL2/MCP-1 | -0.0095 ± 0.021 | -0.017 ± 0.024 | 0.012 ± 0.0071 | 0.01 ± 0.051 | -0.0025 ± 0.016 | 0.022 ± 0.028 | 0.0075 ± 0.0021 | 0.001 ± 0.014 | -0.0255 ± 0.032 | -0.0175 ± 0.005 | 0.023 ± 0.027 | -0.026 ± 0.0042 | -0.0065 ± 0.016 | -0.002 ± 0.0014 | 0.03 ± 0.013
3C:CD62E/E-Selectin | -0.021 ± 0.034 | 0.003 ± 0.048 | 0.026 ± 0.038 | -0.0145 ± 0.015 | -0.01 ± 0.033 | -0.0135 ± 0.035 | -0.0065 ± 0.016 | -0.034 ± 0.0014 | -0.0595 ± 0.013 | -0.0085 ± 0.00071 | -0.003 ± 0.011 | -0.135 ± 0.049 | -0.0175 ± 0.011 | -0.0115 ± 0.0064 | 0.012 ± 0.016
3C:CD87/uPAR | -0.0235 ± 0.07 | -0.0245 ± 0.023 | -0.0015 ± 0.015 | 0.003 ± 0.035 | 0.004 ± 0.034 | 0.0195 ± 0.039 | -0.0335 ± 0.0035 | -0.0565 ± 0.036 | -0.137 ± 0.035 | -0.0165 ± 0.018 | -0.0175 ± 0.0078 | 0.014 ± 0.034 | 0.012 ± 0.011 | -0.0005 ± 0.011 | -0.0145 ± 0.0092
3C:CD106/VCAM-1 | -0.019 ± 0.0071 | -0.035 | -0.014 ± 0.013 | -0.0265 ± 0.026 | -0.029 ± 0.037 | -0.0185 ± 0.043 | -0.008 ± 0.0014 | -0.0125 ± 0.0092 | -0.025 ± 0.016 | -0.0165 ± 0.016 | -0.005 ± 0.011 | -0.179 ± 0.025 | -0.0215 ± 0.08 | -0.02 ± 0.055 | 0.0005 ± 0.079
3C:CD141/Thrombomodulin | -0.0065 ± 0.05 | -0.0475 ± 0.019 | -0.0415 ± 0.033 | -0.0155 ± 0.042 | -0.014 ± 0.048 | -0.072 ± 0.014 | -0.04 ± 0.023 | -0.045 ± 0.02 | 0.0135 ± 0.033 | -0.0215 ± 0.071 | -0.008 ± 0.081 | -0.124 ± 0.013 | 0.0505 ± 0.044 | 0.048 ± 0.02 | 0.064 ± 0.0099
3C:CD142/Tissue Factor | -0.0065 ± 0.029 | 0.006 ± 0.021 | 0.0155 ± 0.064 | 0.0295 ± 0.0021 | 0.034 ± 0.013 | 0.021 ± 0.054 | 0.0005 ± 0.0078 | -0.0285 ± 0.032 | -0.0365 ± 0.029 | -0.0085 ± 0.015 | -0.052 ± 0.076 | -0.29 ± 0.1 | 0.007 ± 0.082 | 0.0255 ± 0.073 | 0.0795 ± 0.046
3C:CXCL8/IL-8 | -0.034 ± 0.055 | -0.0325 ± 0.053 | 0.06 ± 0.0085 | 0.018 ± 0.021 | 0.024 ± 0.016 | 0.0505 ± 0.018 | 0.011 ± 0.023 | 0.0415 ± 0.0092 | 0.024 ± 0.013 | 0.004 ± 0.0057 | 0.0655 ± 0.021 | -0.0045 ± 0.018 | 0.0145 ± 0.042 | 0.0035 ± 0.025 | 0.041 ± 0.0042
3C:CXCL9/MIG | -0.0065 ± 0.0021 | -0.009 ± 0.017 | -0.006 ± 0.0042 | -0.001 ± 0.0014 | 0.0025 ± 0.012 | 0.0105 ± 0.023 | -0.0165 ± 0.005 | -0.0055 ± 0.0021 | 0.009 ± 0.0071 | 0.001 ± 0.0099 | -0.002 ± 0.0042 | -0.017 ± 0.0085 | -0.002 ± 0.0028 | 0 ± 0.0057 | 0.024 ± 0.011
3C:Proliferation | 0.0055 ± 0.0021 | 0.012 ± 0.027 | 0.0305 ± 0.039 | 0.0005 ± 0.028 | -0.003 ± 0.089 | -0.013 ± 0.0085 | -0.0605 ± 0.011 | -0.0635 ± 0.069 | -0.334 ± 0.024 | 0.0035 ± 0.013 | -0.0125 ± 0.0078 | -0.379 ± 0.12 | -0.0265 ± 0.036 | 0.0065 ± 0.067 | -0.0085 ± 0.063
3C:SRB | 0.001 ± 0.0099 | 0.002 ± 0.0057 | -0.0045 ± 0.028 | -0.004 ± 0.014 | -0.0025 ± 0.0078 | 0 ± 0.018 | -0.01 ± 0.011 | -0.0125 ± 0.0078 | -0.139 ± 0.014 | -0.001 | 0.001 ± 0.0014 | -0.0305 ± 0.011 | -0.0105 ± 0.047 | -0.008 ± 0.052 | -0.005 ± 0.03
4H:CCL2/MCP-1 | -0.0135 ± 0.056 | 0.0065 ± 0.029 | -0.02 ± 0.011 | -0.009 ± 0.0014 | 0.007 ± 0.0085 | -0.006 ± 0.0057 | 0.002 ± 0.027 | -0.033 ± 0.0028 | -0.136 ± 0.031 | -0.015 ± 0.033 | 0.0095 ± 0.037 | -0.058 ± 0.0028 | -0.013 ± 0.0014 | -0.023 ± 0.0085 | -0.0005 ± 0.019
4H:CCL26/Eotaxin-3 | 0.017 ± 0.0014 | -0.0285 ± 0.023 | -0.095 ± 0.018 | 0.016 | 0.006 ± 0.048 | -0.009 ± 0.05 | -0.0015 ± 0.005 | -0.0285 ± 0.028 | -0.1 ± 0.0071 | 0.0365 ± 0.016 | 0.032 ± 0.027 | -0.214 ± 0.037 | 0.04 ± 0.038 | 0.025 ± 0.069 | 0.012 ± 0.069
4H:CD62P/P-selectin | -0.004 ± 0.064 | -0.003 ± 0.051 | -0.013 ± 0.054 | -0.033 ± 0.072 | -0.0065 ± 0.044 | -0.01 ± 0.0014 | -0.006 ± 0.014 | 0.055 ± 0.062 | -0.0045 ± 0.012 | 0.0125 ± 0.021 | 0.0035 ± 0.022 | -0.0825 ± 0.018 | -0.013 ± 0.0042 | -0.0165 ± 0.032 | -0.0175 ± 0.016
4H:CD87/uPAR | -0.0005 ± 0.029 | 0.001 ± 0.031 | -0.002 ± 0.04 | -0.015 ± 0.025 | 0.0015 ± 0.019 | -0.0095 ± 0.0035 | -0.01 ± 0.011 | 0.0115 ± 0.013 | -0.0605 ± 0.047 | -0.013 ± 0.023 | 0.0035 ± 0.012 | -0.0665 ± 0.13 | -0.036 ± 0.045 | -0.031 ± 0.023 | -0.065 ± 0.0057
4H:SRB | -0.0015 ± 0.0021 | 0.0035 ± 0.018 | -0.004 ± 0.027 | -0.0005 ± 0.0035 | 0.0005 ± 0.016 | 0.008 ± 0.014 | -0.01 ± 0.0085 | -0.028 ± 0.0099 | -0.101 ± 0.0014 | 0.0015 ± 0.0092 | 0.0125 ± 0.005 | -0.0105 ± 0.019 | -0.0065 ± 0.022 | -0.001 ± 0.025 | -0.003 ± 0.013
BE3C:Keratin 8/18 | 0.001 ± 0.0071 | -0.0185 ± 0.00071 | -0.0085 ± 0.019 | -0.051 ± 0.055 | -0.0445 ± 0.053 | -0.0305 ± 0.035 | 0.0065 ± 0.012 | 0.0055 ± 0.033 | -0.033 ± 0.025 | -0.0075 ± 0.011 | -0.012 | -0.0055 ± 0.044 | -0.0115 ± 0.005 | -0.0185 ± 0.0092 | 0.0105 ± 0.043
BE3C:MMP-1 | -0.013 ± 0.017 | -0.0105 ± 0.018 | 0.078 ± 0.054 | 0.0525 ± 0.0035 | 0.046 ± 0.0057 | 0.0375 ± 0.0078 | 0.0255 ± 0.015 | 0.0645 ± 0.0035 | 0.195 ± 0.02 | -0.0205 ± 0.0078 | -0.011 | 0.0115 ± 0.0078 | -0.01 ± 0.0028 | -0.023 ± 0.037 | 0.0305 ± 0.074
BE3C:MMP-9 | -0.004 ± 0.021 | -0.0045 ± 0.0078 | 0.016 ± 0.021 | 0.014 ± 0.0071 | 0.015 ± 0.0042 | 0.025 ± 0.011 | -0.0585 ± 0.015 | -0.0435 ± 0.005 | -0.131 ± 0.028 | -0.014 ± 0.035 | -0.0465 ± 0.015 | -0.0485 ± 0.0078 | -0.024 ± 0.021 | -0.0235 ± 0.015 | 0.0015 ± 0.029
BE3C:PAI-I | -0.005 ± 0.0014 | 0.011 ± 0.0085 | 0.0435 ± 0.016 | -0.0115 ± 0.037 | -0.019 ± 0.034 | -0.016 ± 0.033 | -0.055 ± 0.062 | -0.087 ± 0.079 | -0.165 ± 0.068 | -0.0185 ± 0.047 | -0.0245 ± 0.037 | 0.0535 ± 0.0064 | -0.0145 ± 0.0021 | -0.0295 ± 0.025 | 0 ± 0.059
